{"source": "ChEMBL document CHEMBL4028801", "about": "“A multifactorial approach to hepatobiliary transporter assessment enables improved therapeutic compound development” (Toxicol Sci, 2013)", "key": {"Bile salt export pump": {"molecular_target": "Bile salt export pump (Homo sapiens, UniProt O95342)", "sequence (O95342 whole entry)": "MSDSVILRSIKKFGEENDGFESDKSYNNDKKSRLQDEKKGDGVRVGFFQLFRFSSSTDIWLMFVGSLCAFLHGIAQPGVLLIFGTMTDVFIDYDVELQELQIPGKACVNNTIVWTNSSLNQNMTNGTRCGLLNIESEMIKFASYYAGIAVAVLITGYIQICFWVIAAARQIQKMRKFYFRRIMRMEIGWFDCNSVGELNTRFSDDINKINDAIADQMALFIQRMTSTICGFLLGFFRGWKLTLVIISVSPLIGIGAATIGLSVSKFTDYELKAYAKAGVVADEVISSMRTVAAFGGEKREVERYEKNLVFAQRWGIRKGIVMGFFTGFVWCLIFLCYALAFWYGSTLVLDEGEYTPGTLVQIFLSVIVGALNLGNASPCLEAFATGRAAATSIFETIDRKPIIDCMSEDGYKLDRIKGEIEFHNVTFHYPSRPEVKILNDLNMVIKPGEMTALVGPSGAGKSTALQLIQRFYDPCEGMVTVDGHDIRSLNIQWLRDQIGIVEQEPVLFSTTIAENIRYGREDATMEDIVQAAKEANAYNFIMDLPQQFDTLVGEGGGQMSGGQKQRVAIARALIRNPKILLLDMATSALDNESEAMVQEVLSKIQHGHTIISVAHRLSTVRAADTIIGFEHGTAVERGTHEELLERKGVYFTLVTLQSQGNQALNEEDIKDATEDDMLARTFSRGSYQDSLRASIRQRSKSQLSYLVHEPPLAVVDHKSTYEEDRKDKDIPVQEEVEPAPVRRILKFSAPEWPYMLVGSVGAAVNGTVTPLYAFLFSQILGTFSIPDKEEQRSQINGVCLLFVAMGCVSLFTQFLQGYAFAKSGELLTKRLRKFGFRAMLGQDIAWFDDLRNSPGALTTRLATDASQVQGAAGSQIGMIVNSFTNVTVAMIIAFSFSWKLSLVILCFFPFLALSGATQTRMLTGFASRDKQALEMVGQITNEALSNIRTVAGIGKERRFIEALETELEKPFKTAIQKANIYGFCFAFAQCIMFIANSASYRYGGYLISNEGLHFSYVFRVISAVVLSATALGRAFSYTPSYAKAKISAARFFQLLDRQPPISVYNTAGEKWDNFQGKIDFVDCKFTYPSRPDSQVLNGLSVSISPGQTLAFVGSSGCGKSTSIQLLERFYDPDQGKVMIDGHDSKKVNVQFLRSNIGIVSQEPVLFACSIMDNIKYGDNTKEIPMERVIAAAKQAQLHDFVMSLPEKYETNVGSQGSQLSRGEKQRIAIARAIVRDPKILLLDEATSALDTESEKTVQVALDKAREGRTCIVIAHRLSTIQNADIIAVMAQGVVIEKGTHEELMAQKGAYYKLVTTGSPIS", "experiment": "Inhibition of human BSEP overexpressed in Sf9 cell membrane vesicles assessed as uptake of [3H]-taurocholate in presence of ATP measured after 15 to 20 mins by membrane vesicle transport assay", "type": "ADME, cell-based"}, "[1]": {"molecular_target": "ATP-binding cassette sub-family C member 2 (Homo sapiens, UniProt Q92887)", "sequence (Q92887 whole entry)": "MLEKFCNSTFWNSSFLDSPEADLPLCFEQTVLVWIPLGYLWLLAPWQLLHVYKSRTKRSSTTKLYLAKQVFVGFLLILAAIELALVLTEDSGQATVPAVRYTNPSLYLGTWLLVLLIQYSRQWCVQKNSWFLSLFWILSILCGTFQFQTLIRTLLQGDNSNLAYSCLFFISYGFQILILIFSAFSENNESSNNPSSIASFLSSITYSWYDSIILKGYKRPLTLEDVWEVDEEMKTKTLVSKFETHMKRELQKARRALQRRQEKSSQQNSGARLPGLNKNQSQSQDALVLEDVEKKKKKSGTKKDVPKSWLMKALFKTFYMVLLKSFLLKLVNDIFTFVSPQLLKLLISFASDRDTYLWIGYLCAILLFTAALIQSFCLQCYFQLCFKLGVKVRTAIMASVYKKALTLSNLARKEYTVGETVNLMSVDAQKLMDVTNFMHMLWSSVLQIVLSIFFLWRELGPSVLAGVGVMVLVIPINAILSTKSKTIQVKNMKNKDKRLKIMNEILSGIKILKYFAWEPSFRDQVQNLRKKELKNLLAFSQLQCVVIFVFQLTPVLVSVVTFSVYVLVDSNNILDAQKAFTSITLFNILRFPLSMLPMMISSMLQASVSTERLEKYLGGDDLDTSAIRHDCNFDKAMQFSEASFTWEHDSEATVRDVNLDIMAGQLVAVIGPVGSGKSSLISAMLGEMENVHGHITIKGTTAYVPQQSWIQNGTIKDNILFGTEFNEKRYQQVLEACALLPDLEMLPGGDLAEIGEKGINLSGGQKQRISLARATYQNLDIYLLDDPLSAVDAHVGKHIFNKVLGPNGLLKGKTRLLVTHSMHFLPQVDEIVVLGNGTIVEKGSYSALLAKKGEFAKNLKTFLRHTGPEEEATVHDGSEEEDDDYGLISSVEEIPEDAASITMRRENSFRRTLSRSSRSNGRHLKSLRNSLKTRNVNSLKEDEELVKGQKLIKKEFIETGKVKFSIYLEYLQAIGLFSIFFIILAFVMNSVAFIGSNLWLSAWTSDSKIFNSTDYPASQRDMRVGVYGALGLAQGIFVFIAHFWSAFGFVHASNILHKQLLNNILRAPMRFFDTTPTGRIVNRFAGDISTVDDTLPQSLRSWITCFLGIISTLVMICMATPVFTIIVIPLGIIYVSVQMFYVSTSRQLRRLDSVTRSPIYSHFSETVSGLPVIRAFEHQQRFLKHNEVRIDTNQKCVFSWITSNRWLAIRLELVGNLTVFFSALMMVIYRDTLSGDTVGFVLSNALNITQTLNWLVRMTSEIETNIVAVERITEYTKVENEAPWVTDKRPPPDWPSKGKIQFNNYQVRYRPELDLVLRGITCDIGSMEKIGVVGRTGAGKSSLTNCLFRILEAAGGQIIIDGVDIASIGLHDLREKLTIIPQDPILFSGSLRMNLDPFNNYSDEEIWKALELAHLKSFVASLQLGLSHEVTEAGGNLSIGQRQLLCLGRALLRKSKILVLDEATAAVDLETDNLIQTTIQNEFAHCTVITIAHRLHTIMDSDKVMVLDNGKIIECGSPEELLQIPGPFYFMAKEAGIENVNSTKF", "experiment": "Inhibition of human MRP2 overexpressed in Sf9 cell membrane vesicles assessed as uptake of [3H]-estradiol-17beta-D-glucuronide in presence of ATP and GSH measured after 20 mins by membrane vesicle transport assay"}, "[2]": {"molecular_target": "ATP-binding cassette sub-family C member 3 (Homo sapiens, UniProt O15438)", "sequence (O15438 whole entry)": "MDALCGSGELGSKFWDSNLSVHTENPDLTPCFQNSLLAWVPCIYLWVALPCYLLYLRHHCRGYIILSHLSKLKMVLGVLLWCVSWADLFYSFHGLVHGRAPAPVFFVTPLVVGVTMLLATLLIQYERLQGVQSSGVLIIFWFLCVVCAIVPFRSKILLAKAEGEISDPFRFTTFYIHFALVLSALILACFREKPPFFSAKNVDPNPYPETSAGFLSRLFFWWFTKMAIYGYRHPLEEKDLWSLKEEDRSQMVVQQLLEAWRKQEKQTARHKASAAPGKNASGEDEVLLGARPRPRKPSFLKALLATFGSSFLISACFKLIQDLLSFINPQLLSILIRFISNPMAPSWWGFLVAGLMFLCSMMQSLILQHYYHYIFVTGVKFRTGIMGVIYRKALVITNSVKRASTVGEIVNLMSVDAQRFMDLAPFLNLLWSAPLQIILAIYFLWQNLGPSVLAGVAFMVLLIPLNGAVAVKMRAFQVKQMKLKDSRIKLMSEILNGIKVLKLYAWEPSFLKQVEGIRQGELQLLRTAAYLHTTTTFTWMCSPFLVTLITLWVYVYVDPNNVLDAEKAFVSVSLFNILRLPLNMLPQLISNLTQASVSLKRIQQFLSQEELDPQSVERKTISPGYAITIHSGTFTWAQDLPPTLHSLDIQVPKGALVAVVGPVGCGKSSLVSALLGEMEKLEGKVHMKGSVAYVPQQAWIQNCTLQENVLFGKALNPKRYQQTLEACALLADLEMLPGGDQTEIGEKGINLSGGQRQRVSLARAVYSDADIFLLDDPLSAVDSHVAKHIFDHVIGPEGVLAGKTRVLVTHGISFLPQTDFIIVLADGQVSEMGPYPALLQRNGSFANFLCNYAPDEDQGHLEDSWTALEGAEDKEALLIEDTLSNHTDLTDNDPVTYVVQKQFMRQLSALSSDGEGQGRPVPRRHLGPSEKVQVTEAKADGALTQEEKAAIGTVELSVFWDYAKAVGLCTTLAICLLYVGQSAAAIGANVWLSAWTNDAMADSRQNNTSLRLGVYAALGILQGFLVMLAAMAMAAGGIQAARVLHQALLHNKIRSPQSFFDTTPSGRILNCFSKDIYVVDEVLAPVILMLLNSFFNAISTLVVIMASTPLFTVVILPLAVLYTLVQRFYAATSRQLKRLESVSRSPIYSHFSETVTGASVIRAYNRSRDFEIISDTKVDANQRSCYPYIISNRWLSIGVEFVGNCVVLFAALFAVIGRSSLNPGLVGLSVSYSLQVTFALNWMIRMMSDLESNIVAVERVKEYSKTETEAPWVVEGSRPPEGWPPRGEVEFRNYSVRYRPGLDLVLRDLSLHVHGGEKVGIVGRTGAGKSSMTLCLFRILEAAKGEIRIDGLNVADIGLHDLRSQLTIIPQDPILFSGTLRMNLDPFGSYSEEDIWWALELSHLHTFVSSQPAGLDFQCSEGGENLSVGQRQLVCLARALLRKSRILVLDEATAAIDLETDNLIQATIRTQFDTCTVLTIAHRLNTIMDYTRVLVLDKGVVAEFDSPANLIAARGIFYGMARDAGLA", "experiment": "Inhibition of human MRP3 overexpressed in Sf9 insect cell membrane vesicles assessed as uptake of [3H]-estradiol-17beta-D-glucuronide in presence of ATP and GSH measured after 10 mins by membrane vesicle transport assay", "type": "ADME, cell-based"}, "[3]": {"molecular_target": "T1, ATP-binding cassette sub-family C member 4 (Homo sapiens, UniProt O15439)", "T1 sequence (O15439 whole entry)": "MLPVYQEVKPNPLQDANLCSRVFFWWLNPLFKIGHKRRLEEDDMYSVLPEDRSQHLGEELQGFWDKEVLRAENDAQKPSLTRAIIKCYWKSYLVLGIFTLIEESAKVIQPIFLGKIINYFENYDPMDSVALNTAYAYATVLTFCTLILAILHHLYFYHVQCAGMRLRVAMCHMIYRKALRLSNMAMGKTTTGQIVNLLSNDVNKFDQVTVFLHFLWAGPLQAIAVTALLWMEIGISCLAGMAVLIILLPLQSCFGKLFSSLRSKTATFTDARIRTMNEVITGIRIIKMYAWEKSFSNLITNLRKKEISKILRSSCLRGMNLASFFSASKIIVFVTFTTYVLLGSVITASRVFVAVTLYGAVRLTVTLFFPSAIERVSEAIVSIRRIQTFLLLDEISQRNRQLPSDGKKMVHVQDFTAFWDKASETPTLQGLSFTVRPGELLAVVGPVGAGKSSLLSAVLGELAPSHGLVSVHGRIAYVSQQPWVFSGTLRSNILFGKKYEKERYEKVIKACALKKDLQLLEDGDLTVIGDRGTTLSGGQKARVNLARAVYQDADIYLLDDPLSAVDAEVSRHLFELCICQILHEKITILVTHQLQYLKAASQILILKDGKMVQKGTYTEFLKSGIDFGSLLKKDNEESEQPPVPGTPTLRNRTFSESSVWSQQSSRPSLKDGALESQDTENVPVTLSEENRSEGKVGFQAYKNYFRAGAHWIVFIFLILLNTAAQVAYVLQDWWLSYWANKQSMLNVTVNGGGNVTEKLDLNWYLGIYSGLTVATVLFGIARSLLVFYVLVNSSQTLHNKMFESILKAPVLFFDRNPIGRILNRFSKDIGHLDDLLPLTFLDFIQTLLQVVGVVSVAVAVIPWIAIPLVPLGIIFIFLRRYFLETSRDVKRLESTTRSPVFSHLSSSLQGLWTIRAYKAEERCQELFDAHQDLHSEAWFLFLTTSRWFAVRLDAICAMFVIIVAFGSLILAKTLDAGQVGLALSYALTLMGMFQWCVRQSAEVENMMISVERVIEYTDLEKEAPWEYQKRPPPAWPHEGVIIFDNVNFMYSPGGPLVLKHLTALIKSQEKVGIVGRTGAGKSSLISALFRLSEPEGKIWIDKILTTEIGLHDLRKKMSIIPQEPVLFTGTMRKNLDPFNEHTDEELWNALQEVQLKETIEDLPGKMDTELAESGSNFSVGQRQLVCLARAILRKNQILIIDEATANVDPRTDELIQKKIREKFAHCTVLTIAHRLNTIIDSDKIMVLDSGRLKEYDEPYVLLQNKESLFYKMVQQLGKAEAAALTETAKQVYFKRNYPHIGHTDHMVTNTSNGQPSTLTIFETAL", "experiment": "Inhibition of human MRP4 overexpressed in Sf9 cell membrane vesicles assessed as uptake of [3H]-estradiol-17beta-D-glucuronide in presence of ATP and GSH measured after 20 mins by membrane vesicle transport assay", "type": "ADME, cell-based"}, "[4]": {"experiment": "AUC in human at 40 to 80 mg, po QD after 24 hrs", "type": "ADME, organism-based", "settings": "in vivo"}, "[5]": {"experiment": "Drug concentration at steady state in human at 40 to 80 mg, po QD after 24 hrs", "type": "ADME, organism-based", "settings": "in vivo, read-out: Css"}, "[6]": {"experiment": "Ratio of drug concentration at steady state in human at 40 to 80 mg, po QD after 24 hrs to IC50 for human BSEP overexpressed in Sf9 insect cells", "type": "ADME, organism-based", "settings": "in vivo"}, "[7]": {"experiment": "Ratio of drug concentration at steady state in human at 40 to 80 mg, po QD after 24 hrs to IC50 for human MRP4 overexpressed in Sf9 insect cells", "type": "ADME, organism-based", "settings": "in vivo"}, "[8]": {"experiment": "AUC in human at 100 to 600 mg, po QD after 24 hrs", "type": "ADME, organism-based", "settings": "in vivo"}, "[9]": {"experiment": "Drug concentration at steady state in human at 100 to 600 mg, po QD after 24 hrs", "type": "ADME, organism-based", "settings": "in vivo, read-out: Css"}, "[10]": {"experiment": "Ratio of drug concentration at steady state in human at 100 to 600 mg, po QD after 24 hrs to IC50 for human BSEP overexpressed in Sf9 insect cells", "type": "ADME, organism-based", "settings": "in vivo"}, "[11]": {"experiment": "AUC in human at 15 to 120 mg, po QD after 24 hrs", "type": "ADME, organism-based", "settings": "in vivo"}, "[12]": {"experiment": "Drug concentration at steady state in human at 15 to 120 mg, po QD after 24 hrs", "type": "ADME, organism-based", "settings": "in vivo, read-out: Css"}, "[13]": {"experiment": "Ratio of drug concentration at steady state in human at 15 to 120 mg, po QD after 24 hrs to IC50 for human BSEP overexpressed in Sf9 insect cells", "type": "ADME, organism-based", "settings": "in vivo"}, "[14]": {"experiment": "Ratio of drug concentration at steady state in human at 15 to 120 mg, po QD after 24 hrs to IC50 for human MRP3 overexpressed in Sf9 insect cells", "type": "ADME, organism-based", "settings": "in vivo"}, "[15]": {"experiment": "Ratio of drug concentration at steady state in human at 15 to 120 mg, po QD after 24 hrs to IC50 for human MRP4 overexpressed in Sf9 insect cells", "type": "ADME, organism-based", "settings": "in vivo"}, "Homo sapiens [16]": {"test_system": "Homo sapiens", "experiment": "Drug concentration at steady state in human at 25 to 50 mg, po TID after 8 hrs", "type": "ADME, organism-based", "settings": "in vivo"}, "[17]": {"experiment": "AUC in human at 5 to 20 mg, iv after 24 hrs", "type": "ADME, organism-based", "settings": "in vivo"}, "Homo sapiens [18]": {"test_system": "Homo sapiens", "experiment": "Drug concentration at steady state in human at 5 to 20 mg, iv after 24 hrs", "type": "ADME, organism-based", "settings": "in vivo"}, "[19]": {"experiment": "AUC in human at 10 to 20 mg, po BID after 12 hrs", "type": "ADME, organism-based", "settings": "in vivo"}, "[20]": {"experiment": "Drug concentration at steady state in human at 10 to 20 mg, po BID after 12 hrs", "type": "ADME, organism-based", "settings": "in vivo, read-out: Css"}, "[21]": {"experiment": "Ratio of drug concentration at steady state in human at 10 to 20 mg, po BID after 12 hrs to IC50 for human BSEP overexpressed in Sf9 insect cells", "type": "ADME, organism-based", "settings": "in vivo"}, "[22]": {"experiment": "Ratio of drug concentration at steady state in human at 10 to 20 mg, po BID after 12 hrs to IC50 for human MRP2 overexpressed in Sf9 insect cells", "type": "ADME, organism-based", "settings": "in vivo"}, "[23]": {"experiment": "Ratio of drug concentration at steady state in human at 10 to 20 mg, po BID after 12 hrs to IC50 for human MRP4 overexpressed in Sf9 insect cells", "type": "ADME, organism-based", "settings": "in vivo"}}}
{"smiles": "Cc1nc(-c2ccc(OCC(C)C)c(C#N)c2)sc1C(=O)O", "note": "[FEBUXOSTAT]", "values": [{"measurement": "IC50", "setting": "Bile salt export pump", "result": 42.9, "unit": "µM"}, {"measurement": "IC50", "setting": "[1]", "result": "> 133", "unit": "µM"}, {"measurement": "IC50", "setting": "[2]", "result": "> 133", "unit": "µM"}, {"measurement": "IC50", "setting": "[3]", "result": 1.9, "unit": "µM"}, {"measurement": "AUC at 24 h", "setting": "[4]", "result": 25.1, "unit": "µM·h"}, {"measurement": "concentration at 24 h", "setting": "[5]", "result": 1050, "unit": "nM"}, {"measurement": "Ratio", "setting": "[6]", "result": 0.024}, {"measurement": "Ratio", "setting": "[7]", "result": 0.55}]}
{"smiles": "CCOC(=O)Nc1ccc(NCc2ccc(F)cc2)nc1N", "note": "[FLUPIRTINE]", "values": [{"measurement": "IC50", "setting": "[1]", "result": "> 133", "unit": "µM"}, {"measurement": "IC50", "setting": "[2]", "result": "> 133", "unit": "µM"}, {"measurement": "IC50", "setting": "[3]", "result": "> 133", "unit": "µM"}, {"measurement": "AUC at 24 h", "setting": "[8]", "result": 20, "unit": "µM·h"}, {"measurement": "concentration at 24 h", "setting": "[9]", "result": 832, "unit": "nM"}, {"measurement": "Ratio", "setting": "[10]", "result": 0.023}]}
{"smiles": "COc1ccc2c(c1)C(=O)N(CCc1ccc(S(=O)(=O)NC(=O)NC3CCCCC3)cc1)C(=O)C2(C)C", "note": "[GLIQUIDONE]", "values": [{"measurement": "IC50", "setting": "Bile salt export pump", "result": 11.6, "unit": "µM"}, {"measurement": "IC50", "setting": "[2]", "result": 23.9, "unit": "µM"}, {"measurement": "IC50", "setting": "[3]", "result": 6.3, "unit": "µM"}, {"measurement": "AUC at 24 h", "setting": "[11]", "result": 9.67, "unit": "µM·h"}, {"measurement": "concentration at 24 h", "setting": "[12]", "result": 403, "unit": "nM"}, {"measurement": "Ratio", "setting": "[13]", "result": 0.035}, {"measurement": "Ratio", "setting": "[14]", "result": 0.017}, {"measurement": "Ratio", "setting": "[15]", "result": 0.064}]}
{"smiles": "COc1ccc2c(c1)c(CC(=O)O)c(C)n2C(=O)c1ccc(Cl)cc1", "note": "[INDOMETHACIN]", "values": [{"measurement": "IC50", "setting": "[2]", "result": 66, "unit": "µM"}, {"measurement": "Css", "setting": "Homo sapiens [16]", "result": 1118, "unit": "nM"}]}
{"smiles": "CO[C@H]1C[C@@H]2CC[C@@H](C)[C@@](O)(O2)C(=O)C(=O)N2CCCC[C@H]2C(=O)O[C@H]([C@H](C)C[C@@H]2CC[C@@H](OC(=O)C(C)(CO)CO)[C@H](OC)C2)CC(=O)[C@H](C)/C=C(\\C)[C@@H](O)[C@@H](OC)C(=O)[C@H](C)C[C@H](C)/C=C/C=C/C=C/1C", "note": "[TEMSIROLIMUS]", "values": [{"measurement": "IC50", "setting": "[1]", "result": 17.6, "unit": "µM"}, {"measurement": "IC50", "setting": "[2]", "result": 71.9, "unit": "µM"}, {"measurement": "IC50", "setting": "[3]", "result": 44, "unit": "µM"}, {"measurement": "AUC at 24 h", "setting": "[17]", "result": 1.91, "unit": "µM·h"}, {"measurement": "Css", "setting": "Homo sapiens [18]", "result": 79, "unit": "nM"}]}
{"smiles": "COc1cc(C(=O)NS(=O)(=O)c2ccccc2C)ccc1Cc1cn(C)c2ccc(NC(=O)OC3CCCC3)cc12", "note": "[ZAFIRLUKAST]", "values": [{"measurement": "IC50", "setting": "Bile salt export pump", "result": 11.1, "unit": "µM"}, {"measurement": "IC50", "setting": "[1]", "result": 58.8, "unit": "µM"}, {"measurement": "IC50", "setting": "[2]", "result": "> 133", "unit": "µM"}, {"measurement": "IC50", "setting": "[3]", "result": 12.1, "unit": "µM"}, {"measurement": "AUC at 12 h", "setting": "[19]", "result": 3.6, "unit": "µM·h"}, {"measurement": "concentration at 12 h", "setting": "[20]", "result": 300, "unit": "nM"}, {"measurement": "Ratio", "setting": "[21]", "result": 0.027}, {"measurement": "Ratio", "setting": "[22]", "result": 0.005}, {"measurement": "Ratio", "setting": "[23]", "result": 0.025}]}
